The text below walks through data of PMC12114839 (2025).

The test has as its system c-MYC G4 DNA (Pu27) (DNA, G4) TGAGGGTGGGTAGGGTGGGTAA
The experiment in a line: UV-Vis absorbance titration. Conditions: 100 mM K+ (KCl); 10 mM Tris-HCl pH 7.4, 1 mM EDTA, 25 °C; 5 µM DNA, 0-20 µM EGCG; no Kd determined.

For the compound `O=C(O[C@@H]1Cc2c(O)cc(O)cc2O[C@@H]1c1cc(O)c(O)c(O)c1)c1cc(O)c(O)c(O)c1`, the binding result is “yes”.
